# Laboratory results from ChEMBL document CHEMBL5370533 (Eur J Med Chem, 2023).
# Active and inactive are the calls of the source. The calls are words filed in the database; no cut-off is given here.
# Assays:
# [1] = biological target: Receptor-type tyrosine-protein kinase FLT3 (Homo sapiens) (UniProt P36888); assay: Inhibition of FLT3 in human MV4-11 cells assessed as decrease in phosphorylated ERK level incubated for 24 hrs by immunoblot analysis; format: cell-based; conditions: dose 20-600 nM
# [2] = test system: ACHN; assay: Antiproliferative activity against human ACHN cells assessed as inhibition of cell growth; format: functional
# [3] = test system: SW-620; assay: Antiproliferative activity against human SW-620 cells assessed as inhibition of cell growth; format: functional
# [4] = biological target: Receptor-type tyrosine-protein kinase FLT3 (Homo sapiens) (UniProt P36888); assay: Inhibition of FLT3 in human MV4-11 cells assessed as decrease in phosphorylated FLT3 level incubated for 24 hrs by immunoblot analysis; format: cell-based; conditions: dose 20-600 nM
# [5] = Tmax in Beagle dog at […], po; format: ADME, organism-based, Canis lupus familiaris; conditions: in vivo, dose 1.5 mg/kg
# [6] = biological target: Receptor-type tyrosine-protein kinase FLT3 (Homo sapiens, UniProt P36888, D835V/ITD); assay: Binding affinity to FLT3 ITD/D835V mutant (unknown origin)
# [7] = test system: BaF3; assay: Antiproliferative activity against mouse BaF3 cells harboring FLT3 D835V mutant assessed as inhibition of cell growth incubated for 72 hrs; format: functional, cell-based; conditions: BaF3, 72 h
# [8] = test system: U-937; assay: Antiproliferative activity against human U-937 cells expressing low level wild type FLT3 assessed as inhibition of cell growth; format: functional, cell-based
# [9] = biological target: Cyclin-dependent kinase 2 (Homo sapiens, UniProt P24941); assay: Inhibition of human CDK2 pretreated for 20 mins followed by [gamma-33P]-ATP addition and measured after 120 mins in presence of 10 uM ATP by radiometric Hot-SpotSM Kinase assay
# [10] = Tmax in rat at 10 mg/kg, po; format: ADME, organism-based; conditions: in vivo
# [11] = biological target: T1, Receptor-type tyrosine-protein kinase FLT3 (Homo sapiens, UniProt P36888); assay: Binding affinity to autoinhibited FLT3 (unknown origin)
# T1 sequence (P36888 whole entry): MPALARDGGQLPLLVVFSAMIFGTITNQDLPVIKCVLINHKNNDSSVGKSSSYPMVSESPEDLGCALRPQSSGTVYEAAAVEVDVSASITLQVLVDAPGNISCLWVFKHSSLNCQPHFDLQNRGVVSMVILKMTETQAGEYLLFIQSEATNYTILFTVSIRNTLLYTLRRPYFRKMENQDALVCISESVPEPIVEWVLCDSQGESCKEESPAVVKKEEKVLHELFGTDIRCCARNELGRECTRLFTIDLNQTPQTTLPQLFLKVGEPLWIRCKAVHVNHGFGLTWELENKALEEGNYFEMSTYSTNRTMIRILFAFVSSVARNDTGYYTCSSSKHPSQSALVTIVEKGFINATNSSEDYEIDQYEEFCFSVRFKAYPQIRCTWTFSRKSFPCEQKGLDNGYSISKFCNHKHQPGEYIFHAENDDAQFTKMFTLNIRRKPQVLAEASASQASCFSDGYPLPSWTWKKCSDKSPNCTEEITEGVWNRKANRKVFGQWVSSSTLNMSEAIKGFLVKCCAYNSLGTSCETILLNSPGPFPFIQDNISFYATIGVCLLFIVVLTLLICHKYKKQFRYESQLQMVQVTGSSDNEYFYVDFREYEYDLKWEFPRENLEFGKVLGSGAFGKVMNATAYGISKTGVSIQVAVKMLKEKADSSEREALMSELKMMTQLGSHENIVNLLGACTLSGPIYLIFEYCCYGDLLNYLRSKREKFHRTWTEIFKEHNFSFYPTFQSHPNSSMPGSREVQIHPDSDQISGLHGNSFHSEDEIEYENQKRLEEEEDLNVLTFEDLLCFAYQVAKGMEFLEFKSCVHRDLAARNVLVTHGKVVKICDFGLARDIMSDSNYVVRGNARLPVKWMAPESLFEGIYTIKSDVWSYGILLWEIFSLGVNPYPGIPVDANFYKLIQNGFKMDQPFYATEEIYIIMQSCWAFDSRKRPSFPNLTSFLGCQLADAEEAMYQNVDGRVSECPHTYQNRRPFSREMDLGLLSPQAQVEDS
# [12] = test system: MV4-11; assay: Antitumor activity against human MV4-11 cells xenografted in nu/nu mouse assessed as inhibition of tumor growth at 25 mg/kg, po qd for 2 weeks by vernier caliper analysis; format: functional; conditions: MV4-11, 336 h
# [13] = Cmax in Beagle dog at […], po; format: ADME, organism-based, Canis lupus familiaris; parameters: dose 1.5 mg/kg, route po; conditions: in vivo
# [14] = biological target: T1, Receptor-type tyrosine-protein kinase FLT3; assay: Binding affinity to FLT3 (unknown origin)
# [15] = biological target: Cyclin-dependent kinase 6 (Homo sapiens, UniProt Q00534); assay: Inhibition of human CDK6 pretreated for 20 mins followed by [gamma-33P]-ATP addition and measured after 120 mins in presence of 10 uM ATP by radiometric Hot-SpotSM Kinase assay
# [16] = test system: K562; assay: Antiproliferative activity against human K562 cells deficit of oncogenic FLT3 assessed as inhibition of cell growth; format: functional, cell-based
# [17] = test system: LOX IMVI; assay: Antiproliferative activity against human LOX IMVI cells assessed as inhibition of cell growth; format: functional
# [18] = biological target: Mast/stem cell growth factor receptor Kit (Homo sapiens) (UniProt P10721); assay: Inhibition of c-Kit (unknown origin)
# [19] = biological target: Receptor-type tyrosine-protein kinase FLT3 (Homo sapiens, UniProt P36888, R834Q); assay: Binding affinity to FLT3 R834Q mutant (unknown origin)
# [20] = test system: NCI-H460; assay: Antiproliferative activity against human NCI-H460 cells assessed as inhibition of cell growth; format: functional
# [21] = test system: THP-1; assay: Antiproliferative activity against human THP-1 cells expressing wild type FLT3 assessed as inhibition of cell growth; format: functional, cell-based
# [22] = test system: MOLM-13; assay: Antiproliferative activity against human MOLM-13 cells harboring FLT3 ITD mutant assessed as inhibition of cell growth; format: functional, cell-based
# [23] = Oral bioavailability in Beagle dog at […]; format: ADME, organism-based, Canis lupus familiaris; conditions: in vivo, dose 1.5 mg/kg
# Cyclin-dependent kinase 6, sequence (Q00534 whole entry): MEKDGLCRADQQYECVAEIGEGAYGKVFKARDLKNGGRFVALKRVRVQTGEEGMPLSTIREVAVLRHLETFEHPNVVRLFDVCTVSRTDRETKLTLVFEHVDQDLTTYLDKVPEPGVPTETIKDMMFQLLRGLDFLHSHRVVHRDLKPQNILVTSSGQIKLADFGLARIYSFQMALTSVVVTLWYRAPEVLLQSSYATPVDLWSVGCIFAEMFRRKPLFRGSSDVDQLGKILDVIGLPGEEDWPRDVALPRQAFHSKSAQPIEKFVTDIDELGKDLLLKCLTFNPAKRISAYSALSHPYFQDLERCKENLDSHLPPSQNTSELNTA
# Mast/stem cell growth factor receptor Kit (Homo sapiens), sequence (P10721 whole entry): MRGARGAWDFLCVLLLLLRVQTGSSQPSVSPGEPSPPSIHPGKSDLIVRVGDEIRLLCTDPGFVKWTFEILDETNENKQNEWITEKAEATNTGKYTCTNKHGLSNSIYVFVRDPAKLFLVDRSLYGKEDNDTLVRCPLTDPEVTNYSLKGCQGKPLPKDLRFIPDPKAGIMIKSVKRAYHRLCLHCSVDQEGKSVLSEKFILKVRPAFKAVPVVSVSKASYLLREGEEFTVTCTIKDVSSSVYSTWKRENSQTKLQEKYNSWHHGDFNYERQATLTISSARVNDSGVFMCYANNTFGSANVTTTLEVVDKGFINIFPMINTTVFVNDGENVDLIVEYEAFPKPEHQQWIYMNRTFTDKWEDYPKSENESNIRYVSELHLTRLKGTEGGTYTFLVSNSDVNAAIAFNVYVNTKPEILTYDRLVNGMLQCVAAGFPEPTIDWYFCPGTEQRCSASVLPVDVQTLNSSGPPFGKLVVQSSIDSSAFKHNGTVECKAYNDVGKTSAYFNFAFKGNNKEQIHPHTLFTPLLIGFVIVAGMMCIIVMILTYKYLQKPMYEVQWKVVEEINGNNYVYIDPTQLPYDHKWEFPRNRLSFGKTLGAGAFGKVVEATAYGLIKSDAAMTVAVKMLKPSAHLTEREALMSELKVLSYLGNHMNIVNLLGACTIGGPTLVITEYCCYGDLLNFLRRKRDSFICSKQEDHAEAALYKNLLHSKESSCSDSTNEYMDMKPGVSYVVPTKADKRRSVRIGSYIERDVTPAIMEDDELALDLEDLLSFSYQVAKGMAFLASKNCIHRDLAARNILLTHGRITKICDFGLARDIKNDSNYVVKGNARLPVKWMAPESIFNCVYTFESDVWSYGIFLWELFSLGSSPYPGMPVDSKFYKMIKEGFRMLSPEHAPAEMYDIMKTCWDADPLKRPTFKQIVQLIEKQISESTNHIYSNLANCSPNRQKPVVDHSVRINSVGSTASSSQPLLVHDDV
smiles,measurement,setting,value
O=C(Nc1ccc(N2CCNCC2)cc1)c1n[nH]cc1Nc1cc(Oc2ccccc2)ncn1,inhibition,[1],Dose-Dependent Effect
same,GI50,[2],< 1 µM
same,GI50,[3],< 1 µM
same,inhibition,[4],Dose-Dependent Effect
same,Tmax,[5],1.67 h
same,Kd,[6],0.00058 µM
same,IC50,[7],0.043 µM
same,IC50,[8],0.692 µM
same,IC50,[9],0.0983 µM
same,Tmax,[10],4 h
same,Kd,[11],0.121 µM
same,inhibition in vivo at 25 mg/kg,[12],94.2%
same,Cmax,[13],52.1 ng/mL
same,Kd,[14],0.0221 µM
same,IC50,[15],0.122 µM
same,IC50,[16],0.572 µM
same,GI50,[17],< 1 µM
same,inhibition,[18],Active
same,Kd,[19],0.0665 µM
same,GI50,[20],< 1 µM
same,IC50,[21],0.903 µM
same,IC50,[22],0.0163 µM
same,bioavailability,[23],72.7%
